Experiment [1] relates to tetrabenazine induced ptosis. In words: tetrabenazine induced ptosis assay (antidepressant activity). It is filed as in vivo, mice. As to conditions: Mus musculus, ip, read-out: ED50, inhibition of ptosis. The source says: The 3-(piperidinyl)- and 3-(pyrrolidinyl)-1H-indazoles of the present invention are also useful as antidepressants by virtue of their ability to elicit an antidepressant response in mammals. […] Thus, for example,. the intraperitoneal (i.p.) dose effecting an estimated 50% inhibition of ptosis (ED50) in mice produced in this assay is as follows: […]

The subject of experiment [2] is mean arterial blood pressure. In words: antihypertensive activity, indirect tail cuff method, spontaneous hypertensive rat. It is filed as in vivo. As to conditions: third day. How it is done:
The compounds of the invention are also useful as antihypertensive agents due to their ability to depress blood pressure in mammals. Antihypertensive activity is measured in the spontaneous hypertensive rat by the indirect tail cuff method described in "Methods in Pharmacology," A. Schwartz, Ed., Vol. I, Appleton-Century Crofts, N.Y., 1971, p. 135. In this procedure a group of five animals are treated orally (p.o.) for three days with the test compound in relation to the control group of the same number. The drop in blood pressure is measured on the third day following administration. The antihypertensive activities of some of the compounds, expressed as mm decrease in mean arterial blood pressure are given below: […]

One may read the ED50 as the dose at which the effect has come halfway, by size or by number of responders.

Molecules are shown by their SMILES. Read-outs that look alike come from different tables or passages of the source.

Turning to `CN1CCC(c2nn(-c3cccc(F)c3)c3ccccc23)CC1.Cl` [1-(3-Fluorophenyl)-3-(1-methyl-4-piperidinyl)-1H-indazole hydrochloride], the ED50 in experiment [1] (estimated 50% inhibition) is 5 mg/kg.

On to `N=C(N)NCCN1CCCCCCC1` [guanethidine, reference compound], for which the “Decrease in Blood Pressure” value in experiment [2] (50 mg/kg p.o.) amounted to 20 mm Hg.

As to `CN1CCC(c2nn(-c3ccccc3F)c3cc(F)ccc23)CC1.O=C(O)/C=C/C(=O)O` [6-Fluoro-1-(2-fluorophenyl)-3-(1-methyl-4-piperidinyl)-1H-indazole fumarate], the ED50 in experiment [1] (estimated 50% inhibition) was 6.3 mg/kg.

Take `CN1CCC(c2nn(-c3ccccc3F)c3ccccc23)CC1.Cl` [1-(2-Fluorophenyl)-3-(1-methyl-4-piperidinyl)-1H-indazole hydrochloride]: in experiment [1] (estimated 50% inhibition), the median effective dose (ED50) was 1.7 mg/kg.

On to `COC(=N)N1CCC(c2n[nH]c3cc(F)ccc23)CC1` [4-(6-fluoro-1H-indazol-3-yl)piperidine-1-carboximidic acid methyl ester], for which the “Decrease in Blood Pressure” value in experiment [2] (30 mg/kg p.o.) is reported as 88 mm Hg.

Consider `CN1CCC(c2nn(-c3ccccc3N)c3ccccc23)CC1.O=C(O)/C=C/C(=O)O` [1-(2-Aminophenyl)-3-(1-methyl-4-piperidinyl)-1H-indazole fumarate], for which the ED50 in experiment [1] (estimated 50% inhibition) was 19.2 mg/kg.

As for `CN(C)CCCN1c2ccccc2CCc2ccccc21` [imipramine, reference compound], the ED50 in experiment [1] turned out to be 1.3 mg/kg.

`CN1CCC(c2nn(-c3ccccc3Cl)c3ccccc23)CC1.O=C(O)/C=C/C(=O)O` [1-(2-Chlorophenyl)-3-(1-methyl-4-piperidinyl)-1H-indazole fumarate]: in experiment [1] (estimated 50% inhibition), the ED50 is 5.3 mg/kg.

Take `Clc1ccccc1-n1nc(C2CCNCC2)c2ccccc21.O=C(O)/C=C/C(=O)O` [1-(2-Chlorophenyl)-3-(4-piperidinyl)-1H-indazole fumarate]: the ED50 in experiment [1] (estimated 50% inhibition) was 5.9 mg/kg.

Take `COC(=N)N1CCC(c2n[nH]c3ccccc23)CC1` [4-(1H-indazol-3-yl)piperidine-1-carboximidic acid methyl ester]: the “Decrease in Blood Pressure” value in experiment [2] (3 mg/kg p.o.) is reported as 47 mm Hg.

`CN(C)CCC=C1c2ccccc2CCc2ccccc21` [amitriptyline, reference compound]: the ED50 in experiment [1] (estimated 50% inhibition) was 1.5 mg/kg.

Source of the values: US4853470A, “3-(piperidinyl)- and 3-(pyrrolidinyl)-1H-indazoles” (Hoechst-Roussel Pharmaceuticals, Inc., priority 1988, dated 1989).
